Results on seven compounds are retold here after patent publication EP2173323B1, “STIMULATING GEL” (LRC Products Limited, priority 2007, dated 2009).

Data set [1] is described as follows: Cooling strength of coolants relative to menthol. The note with it: menthol = 100.
The nature of data set [2]: Volatility compared with menthol. It counts as physicochemical.
Data set [3] is described as follows: Crystallisation / clouding at low temperatures. It counts as physicochemical.
The nature of data set [4]: Penetration of coolants across body surfaces. An excerpt:
By "penetration enhancer" we mean any compound which aids penetration or absorption of coolants (or other active ingredients) into and through body surfaces, for example, compounds which aid penetration of coolants into and through the skin and mucosal membranes. Preferably, penetration enhancers as used herein aid penetration and/or absorption of coolants which are cyclic carboxamides, such as N-cthyl-p-menthane-3-carboxamide, and/or aid penetration and/or absorption of (-)-isopulegol across body surfaces. Such penetration enhancement may potentiate the action of coolants, or other active ingredients. Any suitable penetration enhancer may be used. Preferred penetration enhancers include ethoxy diglycol, limonene, isopropyl palmitate, sodium lauryl sulphate and L-arginine. Optionally, the penetration enhancer may also act as a vasodilator.
Optionally, the compositions further comprise a penetration enhancer. The penetration enhancer can be any compound which aids penetration or absorption of the cyclic carboxamide and/or of isopulegol into and through body surfaces, for example, compounds which aid penetration into and through the skin and mucosal membranes. Any suitable penetration enhancer may be used. Preferred penetration enhancers include ethoxy diglycol, limonene; isopropyl palmitate; and sodium lauryl sulphate. […]

As to `CNC(=O)C(C)(C(C)C)C(C)C` [WS-23], the “Cooling strength relative to menthol” value in data set [1] stood at 75.

On to `CC1CCC(C(C)C)C(O)C1` (stereo not drawn) [Menthol], for which, in data set [1], the “Cooling strength relative to menthol” value came to 100.

For the compound `CCNC(=O)C1CC(C)CCC1C(C)C` (stereo not drawn) [WS-3, N-ethyl-p-menthane-3-carboxamide], in data set [2], the volatility entry is reported as “lower volatility than menthol”. In data set [1], the “Cooling strength relative to menthol” value is on record as 150. In addition, the “crystallisation at low temperatures” value in data set [3] is on record as “does not crystallise at low temperatures”.

With `CC1CCC(C(C)C)C2(C1)OCC(CO)O2` (stereo not drawn) [Menthone glycerine acetal], in data set [1], the “Cooling strength relative to menthol” value is listed as 41.

As to `N=C(N)NCCC[C@H](N)C(=O)O` [L-arginine], in data set [4], the “penetration enhancement of coolants (cyclic carboxamides and isopulegol)” value is reported as “aids penetration of coolants”.

As to `CC1CCC(C(C)C)C(OC(=O)C(C)O)C1` (stereo not drawn) [Menthyl lactate], the “Cooling strength relative to menthol” value in data set [1] is 43.

`C=C(C)C1CCC(C)CC1O` (stereo not drawn) [Isopulegol, 2-isopropenyl-5-methyl-cyclohexanol]: the “Cooling strength relative to menthol” value in data set [1] was 25.
